Assay results as given in US8349826B2, “Oxazolidinone derivatives” (Actelion Pharmaceuticals Ltd., priority 2008, dated 2013).

What follows are compounds tested on Moraxella catarrhalis A894 (assay: MIC by broth microdilution (cation-adjusted Mueller-Hinton Broth, CLSI M7-A7)).
Format: cell-based
Experimental: Minimal inhibitory concentrations (MICS; mg/l) were determined in cation-adjusted Mueller-Hinton Broth by a microdilution procedure following the description given in “Procedures for Dilution Antimicrobial Susceptibility Tests for Bacteria that Grow Aerobically”, Approved standard, 7th ed., Clinical and Laboratory Standards Institute (CLSI) Document M7-A7, Wayne, Pa., USA, 2006. All Example compounds were tested against several Gram positive and Gram negative bacteria such as S. aureus, E. faecalis, S. pneumoniae, M. catarrhalis, A. baumanii, E. coli or P. aeruginosa.

**Q.** For “rac-4-(2-{2-[3-(2,3-dihydro-[1,4]dioxino[2,3-b]pyridin-6-yl)-2-oxo-oxazolidin-5-yl]-ethylamino}-ethyl)-6-methoxy-4H-pyrido[2,3-b]pyrazin-3-one [Example 32]”, which “MIC Moraxella catarrhalis A894” value is on record?
**A.** 1 µg/mL

**Q.** Which MIC does the source give for COc1ccc2ncc(=O)n(CCCNC[C@@H]3CN(c4ccc5c(c4)OCCO5)C(=O)O3)c2n1 [Example 18, 4-(3-{[(R)-3-(2,3-dihydro-benzo[1,4]dioxin-6-yl)-2-oxo-oxazolidin-5-ylmethyl]-amino}-propyl)-6-methoxy-4H-pyrido[2,3-b]pyrazin-3-one] here?
**A.** ≤ 0.031 µg/mL

**Q.** With COc1ccc2ncc(=O)n(C3CN(C[C@@H]4CN(c5ccc6c(c5)NC(=O)CS6)C(=O)O4)C3)c2n1 [Example 30, 6-methoxy-4-{1-[(R)-2-oxo-3-(3-oxo-3,4-dihydro-2H-benzo[1,4]thiazin-6-yl)-oxazolidin-5-ylmethyl]-azetidin-3-yl}-4H-pyrido[2,3-b]pyrazin-3-one] as the compound, how does the MIC read?
**A.** ≤ 0.016 µg/mL

**Q.** For COc1ccc2ccc(=O)n(C[C@H](O)CNC[C@@H]3CN(c4ccc5c(c4)NC(=O)CO5)C(=O)O3)c2c1.Cl [Example 13, 6-((R)-5-{[(R)-2-hydroxy-3-(7-methoxy-2-oxo-2H-quinolin-1-yl)-propylamino]-methyl}-2-oxo-oxazolidin-3-yl)-4H-benzo[1,4]oxazin-3-one hydrochloride], which MIC is on record?
**A.** ≤ 0.031 µg/mL

**Q.** Which MIC does the source give for COc1ccc2ncc(=O)n(CC(N)C(=O)NC[C@@H]3CN(c4ccc5c(c4)OCCO5)C(=O)O3)c2c1 (mixture of isomers) [Example 12, (RS)-2-amino-N-[(R)-3-(2,3-dihydro-benzo[1,4]dioxin-6-yl)-2-oxo-oxazolidin-5-ylmethyl]-3-(7-methoxy-2-oxo-2H-quinoxalin-1-yl)-propionamide] here?
**A.** 1 µg/mL

**Q.** COc1ccc2ncc(=O)n(CCC(=O)NC[C@@H]3CN(c4ccc5c(c4)NC(=O)CS5)C(=O)O3)c2c1 [Example 6, 3-(7-methoxy-2-oxo-2H-quinoxalin-1-yl)-N-[(R)-2-oxo-3-(3-oxo-3,4-dihydro-2H-benzo[1,4]thiazin-6-yl)-oxazolidin-5-ylmethyl]-propionamide] was tested. Which MIC did it give?
**A.** ≤ 0.031 µg/mL
